{
  "source": "PubChem BioAssay AID1259407",
  "about": "(Chemical Carcinogenesis Research Information System (CCRIS), 2018)",
  "test_system": "CCRIS mutagenicity, Ames/micronucleus/aberration tests",
  "assay": "CCRIS mutagenicity studies",
  "key": {"[1]": {"settings": "Test System: AMES SALMONELLA TYPHIMURIUM, Strain/Indicator: TA98, Metabolic Activation: NONE, Method: STANDARD PLATE"}, "[2]": {"settings": "Test System: AMES SALMONELLA TYPHIMURIUM, Strain/Indicator: TA100, Metabolic Activation: NONE, Method: STANDARD PLATE"}, "[3]": {"settings": "Test System: AMES SALMONELLA TYPHIMURIUM, Strain/Indicator: TA100, Metabolic Activation: NONE, Method: PREINCUBATION"}, "[4]": {"settings": "Test System: AMES SALMONELLA TYPHIMURIUM, Strain/Indicator: TA1535, Metabolic Activation: NONE, Method: PREINCUBATION"}},
  "note": "Activity calls are given as the source filed them. How the calls were made is not given here.",
  "data": [
    {"smiles": "Cc1c(/C=N/OCc2ccccc2)c2cc([N+](=O)[O-])ccc2n1Cc1cccc([N+](=O)[O-])c1", "values": [
      {"measurement": "mutagenic call", "setting": "[1]", "value": "active; positive"},
      {"measurement": "mutagenic call", "setting": "Test System: AMES SALMONELLA TYPHIMURIUM, Strain/Indicator: TA98, Metabolic Activation: RAT, LIVER, S-9, PHENOBARBITAL AND BETA-NAPHTHOFLAVONE, Method: STANDARD PLATE", "value": "active; positive"},
      {"measurement": "mutagenic call", "setting": "[2]", "value": "inactive; negative"},
      {"measurement": "mutagenic call", "setting": "Test System: AMES SALMONELLA TYPHIMURIUM, Strain/Indicator: TA100, Metabolic Activation: RAT, LIVER, S-9, PHENOBARBITAL AND BETA-NAPHTHOFLAVONE, Method: STANDARD PLATE", "value": "inactive; negative"}
    ]},
    {"smiles": "CCN(CC)CCCNc1ccc2ncn3c4ccc(O)cc4c(=O)c1c23", "values": [
      {"measurement": "mutagenic call", "setting": "Test System: CHINESE HAMSTER V-79, Strain/Indicator: V-79 (HGPRT)/6-THIOGUANINE, Metabolic Activation: NONE", "value": "active; positive"}
    ]},
    {"smiles": "Cc1ccc2c(ccc3cc4ccccc4cc32)c1", "values": [
      {"measurement": "mutagenic call", "setting": "Test System: AMES SALMONELLA TYPHIMURIUM, Strain/Indicator: TA100, Metabolic Activation: RAT, INTACT HEPATOCYTES, AROCLOR 1254, Method: PREINCUBATION", "value": "inactive; negative"},
      {"measurement": "mutagenic call", "setting": "Test System: AMES SALMONELLA TYPHIMURIUM, Strain/Indicator: TA100, Metabolic Activation: RAT, NADPH-FORTIFIED HOMOGENIZED HEPATOCYTES, AROCLOR 1254, Method: PREINCUBATION", "value": "active; positive"},
      {"measurement": "mutagenic call", "setting": "Test System: AMES SALMONELLA TYPHIMURIUM, Strain/Indicator: TA100, Metabolic Activation: RAT, SONICATED HEPATOCYTES, AROCLOR 1254, Method: PREINCUBATION", "value": "active; positive"}
    ]},
    {"smiles": "N#Cc1ccc2nc(N)[nH]c2c1", "values": [
      {"measurement": "mutagenic call", "setting": "Test System: AMES SALMONELLA TYPHIMURIUM, Strain/Indicator: TA98, Metabolic Activation: RAT, LIVER, S-9, AROCLOR 1254, Method: PREINCUBATION", "value": "active; positive"},
      {"measurement": "mutagenic call", "setting": "Test System: AMES SALMONELLA TYPHIMURIUM, Strain/Indicator: TA100, Metabolic Activation: RAT, LIVER, S-9, AROCLOR 1254, Method: PREINCUBATION", "value": "active; positive"}
    ]},
    {"smiles": "CC(C)OCC1CO1", "note": "(stereo unspecified)", "values": [
      {"measurement": "mutagenic call", "setting": "Test System: AMES SALMONELLA TYPHIMURIUM, Strain/Indicator: TA100, Metabolic Activation: HAMSTER, LIVER, S-9, AROCLOR 1254 (10%), Method: PREINCUBATION", "value": "active; positive"},
      {"measurement": "mutagenic call", "setting": "[3]", "value": "active; positive"},
      {"measurement": "mutagenic call", "setting": "Test System: AMES SALMONELLA TYPHIMURIUM, Strain/Indicator: TA100, Metabolic Activation: RAT, LIVER, S-9, AROCLOR 1254 (10%), Method: PREINCUBATION", "value": "active; positive"},
      {"measurement": "mutagenic call", "setting": "Test System: AMES SALMONELLA TYPHIMURIUM, Strain/Indicator: TA1535, Metabolic Activation: HAMSTER, LIVER, S-9, AROCLOR 1254 (10%), Method: PREINCUBATION", "value": "active; positive"},
      {"measurement": "mutagenic call", "setting": "[4]", "value": "active; positive"},
      {"measurement": "mutagenic call", "setting": "Test System: AMES SALMONELLA TYPHIMURIUM, Strain/Indicator: TA1535, Metabolic Activation: RAT, LIVER, S-9, AROCLOR 1254 (10%), Method: PREINCUBATION", "value": "active; positive"}
    ]},
    {"smiles": "O=c1cn[nH]c(=O)[nH]1", "values": [
      {"measurement": "mutagenic call", "setting": "Test System: AMES SALMONELLA TYPHIMURIUM, Strain/Indicator: TA98, Metabolic Activation: MAIZE SEEDLING, S-14, Method: PREINCUBATION", "value": "inactive; negative"},
      {"measurement": "mutagenic call", "setting": "Test System: AMES SALMONELLA TYPHIMURIUM, Strain/Indicator: TA98, Metabolic Activation: MOUSE, LIVER, S-9, Method: PREINCUBATION", "value": "inactive; negative"},
      {"measurement": "mutagenic call", "setting": "Test System: AMES SALMONELLA TYPHIMURIUM, Strain/Indicator: TA98, Metabolic Activation: NONE, Method: PREINCUBATION", "value": "inactive; negative"},
      {"measurement": "mutagenic call", "setting": "[1]", "value": "inactive; negative"},
      {"measurement": "mutagenic call", "setting": "Test System: AMES SALMONELLA TYPHIMURIUM, Strain/Indicator: TA98, Metabolic Activation: RAT, LIVER, S-9, AROCLOR 1254, Method: STANDARD PLATE", "value": "active; positive"},
      {"measurement": "mutagenic call", "setting": "Test System: AMES SALMONELLA TYPHIMURIUM, Strain/Indicator: TA100, Metabolic Activation: MAIZE SEEDLING, S-14, Method: PREINCUBATION", "value": "inactive; negative"},
      {"measurement": "mutagenic call", "setting": "Test System: AMES SALMONELLA TYPHIMURIUM, Strain/Indicator: TA100, Metabolic Activation: MOUSE, LIVER, S-9, Method: PREINCUBATION", "value": "inactive; negative"},
      {"measurement": "mutagenic call", "setting": "[3]", "value": "inactive; negative"},
      {"measurement": "mutagenic call", "setting": "[2]", "value": "inactive; negative"},
      {"measurement": "mutagenic call", "setting": "Test System: AMES SALMONELLA TYPHIMURIUM, Strain/Indicator: TA100, Metabolic Activation: RAT, LIVER, S-9, AROCLOR 1254, Method: STANDARD PLATE", "value": "inactive; negative"},
      {"measurement": "mutagenic call", "setting": "[4]", "value": "inactive; negative"},
      {"measurement": "mutagenic call", "setting": "Test System: AMES SALMONELLA TYPHIMURIUM, Strain/Indicator: TA1535, Metabolic Activation: NONE, Method: STANDARD PLATE", "value": "inactive; negative"},
      {"measurement": "mutagenic call", "setting": "Test System: AMES SALMONELLA TYPHIMURIUM, Strain/Indicator: TA1535, Metabolic Activation: RAT, LIVER, S-9, AROCLOR 1254, Method: STANDARD PLATE", "value": "inactive; negative"},
      {"measurement": "mutagenic call", "setting": "Test System: AMES SALMONELLA TYPHIMURIUM, Strain/Indicator: TA1537, Metabolic Activation: NONE, Method: PREINCUBATION", "value": "inactive; negative"},
      {"measurement": "mutagenic call", "setting": "Test System: AMES SALMONELLA TYPHIMURIUM, Strain/Indicator: TA1537, Metabolic Activation: NONE, Method: STANDARD PLATE", "value": "inactive; negative"},
      {"measurement": "mutagenic call", "setting": "Test System: AMES SALMONELLA TYPHIMURIUM, Strain/Indicator: TA1537, Metabolic Activation: RAT, LIVER, S-9, AROCLOR 1254, Method: STANDARD PLATE", "value": "inactive; negative"},
      {"measurement": "mutagenic call", "setting": "Test System: AMES SALMONELLA TYPHIMURIUM, Strain/Indicator: TA1538, Metabolic Activation: NONE, Method: PREINCUBATION", "value": "inactive; negative"},
      {"measurement": "mutagenic call", "setting": "Test System: AMES SALMONELLA TYPHIMURIUM, Strain/Indicator: TA1538, Metabolic Activation: NONE, Method: STANDARD PLATE", "value": "inactive; negative"},
      {"measurement": "mutagenic call", "setting": "Test System: AMES SALMONELLA TYPHIMURIUM, Strain/Indicator: TA1538, Metabolic Activation: RAT, LIVER, S-9, AROCLOR 1254, Method: STANDARD PLATE", "value": "active; positive"}
    ]},
    {"smiles": "CCc1c(O)c2c(c(O)c1OC)C(=O)C(OC)=C(OC)C2=O", "values": [
      {"measurement": "mutagenic call", "setting": "Test System: AMES SALMONELLA TYPHIMURIUM, Strain/Indicator: TA98, Metabolic Activation: MICROSOMAL FRACTION, FULLY ACTIVATED, AND RAT LIVER S-9, Method: STANDARD PLATE", "value": "inactive; negative"},
      {"measurement": "mutagenic call", "setting": "Test System: AMES SALMONELLA TYPHIMURIUM, Strain/Indicator: TA98, Metabolic Activation: MICROSOMAL FRACTION, NON-FULLY ACTIVATED, Method: STANDARD PLATE", "value": "inactive; negative"},
      {"measurement": "mutagenic call", "setting": "Test System: AMES SALMONELLA TYPHIMURIUM, Strain/Indicator: TA100, Metabolic Activation: MICROSOMAL FRACTION, FULLY ACTIVATED, AND RAT LIVER S-9, Method: STANDARD PLATE", "value": "inactive; negative"},
      {"measurement": "mutagenic call", "setting": "Test System: AMES SALMONELLA TYPHIMURIUM, Strain/Indicator: TA100, Metabolic Activation: MICROSOMAL FRACTION, NON-FULLY ACTIVATED, Method: STANDARD PLATE", "value": "inactive; negative"},
      {"measurement": "mutagenic call", "setting": "Test System: AMES SALMONELLA TYPHIMURIUM, Strain/Indicator: TA1537, Metabolic Activation: MICROSOMAL FRACTION, FULLY ACTIVATED, AND RAT LIVER S-9, Method: STANDARD PLATE", "value": "inactive; negative"},
      {"measurement": "mutagenic call", "setting": "Test System: AMES SALMONELLA TYPHIMURIUM, Strain/Indicator: TA1537, Metabolic Activation: MICROSOMAL FRACTION, NON-FULLY ACTIVATED, Method: STANDARD PLATE", "value": "inactive; negative"}
    ]}
  ]
}
